Reference: ChEMBL document CHEMBL4406858, “Discovery of 2-aminopyridines bearing a pyridone moiety as potent ALK inhibitors to overcome the crizotinib-resistant mutants” (Eur J Med Chem, 2019)

Tests used:
[1] = system: KARPAS-299; assay: cells; settings: Homo sapiens, KARPAS-299, 72 h
Description: Antiproliferative activity against human KARPAS299 cells expressing NMP-ALK assessed as reduction in cell viability incubated for 72 hrs by MTT assay

[2] = cells; settings: Homo sapiens, SKNBE2, 72 h
Description: Antiproliferative activity against human SK-N-BE(2) cells expressing wild type ALK assessed as reduction in cell viability incubated for 72 hrs by MTT assay

[3] = system: SH-SY5Y; assay: cells; settings: Homo sapiens, 72 h
Description: Antiproliferative activity against human SH-SY5Y cells expressing ALK F1174L mutant assessed as reduction in cell viability incubated for 72 hrs by MTT assay

[4] = system: NCI-H2228; assay: cells; settings: Homo sapiens, NCI-H2228, 72 h
Description: Antiproliferative activity against human NCI-H2228 cells expressing EML4-ALK assessed as reduction in cell viability incubated for 72 hrs by MTT assay

[5] = biological target: Proto-oncogene tyrosine-protein kinase ROS (Homo sapiens, UniProt P08922); assay: Inhibition of recombinant human N-terminal GST-tagged ROS (1883 to 2347 residues) expressed in baculovirus expression system using IRS1 as substrate incubated with enzyme and substrate for 5 mins followed by ATP addition followed by further incubation for 30 mins by HTRF assay
[6] = system: KARPAS-299; assay: Cell cycle arrest in human KARPAS299 cells expressing […] assessed as accumulation of cells at G1 phase at 1 uM incubated for 48 hrs by propidium iodide staining based flow cytometry (reference value: 58.94%); format: functional
[7] = system: KARPAS-299; assay: Cell cycle arrest in human KARPAS299 cells expressing […] assessed as accumulation of cells at S phase at 1 uM incubated for 48 hrs by propidium iodide staining based flow cytometry (reference value: 28.83%); format: functional
[8] = system: KARPAS-299; assay: Cell cycle arrest in human KARPAS299 cells expressing […] assessed as accumulation of cells at G2 phase at 1 uM incubated for 48 hrs by propidium iodide staining based flow cytometry (reference value: 3.68%); format: functional

Sequence of Proto-oncogene tyrosine-protein kinase ROS (P08922 whole entry, the tested form may be a part): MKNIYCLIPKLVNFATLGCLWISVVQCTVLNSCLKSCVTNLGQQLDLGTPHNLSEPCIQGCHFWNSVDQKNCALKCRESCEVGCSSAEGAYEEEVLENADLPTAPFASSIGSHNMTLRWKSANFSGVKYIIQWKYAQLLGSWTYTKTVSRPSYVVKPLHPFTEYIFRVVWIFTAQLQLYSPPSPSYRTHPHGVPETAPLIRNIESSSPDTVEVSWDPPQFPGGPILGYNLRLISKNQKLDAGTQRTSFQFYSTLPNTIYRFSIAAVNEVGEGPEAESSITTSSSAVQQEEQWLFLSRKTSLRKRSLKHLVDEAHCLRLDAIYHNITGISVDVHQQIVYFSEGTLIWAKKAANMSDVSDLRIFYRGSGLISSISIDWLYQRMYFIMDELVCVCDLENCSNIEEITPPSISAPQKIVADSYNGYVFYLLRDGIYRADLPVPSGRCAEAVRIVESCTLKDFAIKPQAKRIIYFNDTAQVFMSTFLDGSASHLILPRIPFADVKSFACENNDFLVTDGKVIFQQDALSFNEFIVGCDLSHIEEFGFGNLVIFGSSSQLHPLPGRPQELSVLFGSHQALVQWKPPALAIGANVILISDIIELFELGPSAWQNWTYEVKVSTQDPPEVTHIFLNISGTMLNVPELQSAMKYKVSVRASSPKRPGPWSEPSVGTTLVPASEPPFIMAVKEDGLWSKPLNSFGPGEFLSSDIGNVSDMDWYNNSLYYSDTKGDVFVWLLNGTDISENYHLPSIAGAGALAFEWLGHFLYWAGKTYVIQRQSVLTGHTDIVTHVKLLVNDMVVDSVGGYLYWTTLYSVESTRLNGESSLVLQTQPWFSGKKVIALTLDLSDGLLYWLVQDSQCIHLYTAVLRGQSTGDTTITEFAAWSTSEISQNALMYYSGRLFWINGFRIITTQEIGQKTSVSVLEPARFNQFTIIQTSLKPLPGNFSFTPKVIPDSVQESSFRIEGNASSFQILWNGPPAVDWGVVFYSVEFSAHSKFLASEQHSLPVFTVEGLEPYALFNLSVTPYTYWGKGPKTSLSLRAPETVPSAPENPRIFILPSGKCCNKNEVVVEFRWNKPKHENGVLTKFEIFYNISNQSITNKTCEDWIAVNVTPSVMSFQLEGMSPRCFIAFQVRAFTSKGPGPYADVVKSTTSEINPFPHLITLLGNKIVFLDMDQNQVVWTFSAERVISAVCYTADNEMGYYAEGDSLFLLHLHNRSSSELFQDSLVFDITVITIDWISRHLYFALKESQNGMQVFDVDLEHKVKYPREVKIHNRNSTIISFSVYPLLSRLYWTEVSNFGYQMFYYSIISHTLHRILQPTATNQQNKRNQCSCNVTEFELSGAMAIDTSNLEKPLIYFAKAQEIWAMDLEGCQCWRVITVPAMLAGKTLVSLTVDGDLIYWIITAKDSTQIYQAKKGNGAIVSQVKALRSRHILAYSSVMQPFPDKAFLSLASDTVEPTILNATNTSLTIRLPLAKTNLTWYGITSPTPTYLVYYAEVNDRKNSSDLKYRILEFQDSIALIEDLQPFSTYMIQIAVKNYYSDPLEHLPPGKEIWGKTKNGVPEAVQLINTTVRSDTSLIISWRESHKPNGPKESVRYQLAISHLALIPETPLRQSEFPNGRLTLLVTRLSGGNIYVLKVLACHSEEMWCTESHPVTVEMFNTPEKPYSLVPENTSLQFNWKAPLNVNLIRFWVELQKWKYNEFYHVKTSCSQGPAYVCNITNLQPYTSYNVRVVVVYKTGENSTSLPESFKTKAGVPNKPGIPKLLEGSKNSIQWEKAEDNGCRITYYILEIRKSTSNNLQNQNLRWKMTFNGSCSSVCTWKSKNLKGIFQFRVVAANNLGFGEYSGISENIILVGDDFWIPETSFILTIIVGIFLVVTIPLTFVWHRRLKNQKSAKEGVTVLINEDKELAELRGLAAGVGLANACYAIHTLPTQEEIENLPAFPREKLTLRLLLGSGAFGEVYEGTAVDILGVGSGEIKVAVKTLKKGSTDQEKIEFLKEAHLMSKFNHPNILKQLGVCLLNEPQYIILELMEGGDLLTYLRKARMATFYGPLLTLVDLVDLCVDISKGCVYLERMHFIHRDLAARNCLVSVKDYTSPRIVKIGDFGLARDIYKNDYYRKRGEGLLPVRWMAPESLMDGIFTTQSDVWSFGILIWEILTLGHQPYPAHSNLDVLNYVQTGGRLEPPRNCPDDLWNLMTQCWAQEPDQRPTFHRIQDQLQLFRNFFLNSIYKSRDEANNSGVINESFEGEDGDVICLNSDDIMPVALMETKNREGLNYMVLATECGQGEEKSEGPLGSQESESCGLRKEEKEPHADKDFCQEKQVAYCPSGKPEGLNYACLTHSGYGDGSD

Structure (SMILES) | IC50 [1] | other results
C[C@@H](Sc1cc(-c2ccn(Cc3ccccc3)c(=O)c2)cnc1N)c1c(Cl)ccc(F)c1Cl | 0.79 µM | 
C[C@@H](Oc1cc(-c2cc[nH]c(=O)c2)cnc1N)c1c(Cl)ccc(F)c1Cl | 0.05 µM | IC50 [2]: 0.75 µM; IC50 [3]: 2.07 µM; IC50 [4]: 0.64 µM
CC(Oc1cc(-c2cc[nH]c(=O)c2)cnc1N)c1ccccc1 (stereo not given) | 4.4 µM | 
CC(Oc1cc(-c2ccn(C)c(=O)c2)cnc1N)c1ccccc1 (stereo not given) | 2.86 µM | 
C[C@@H](Sc1cc(-c2cc[nH]c(=O)c2)cnc1N)c1c(Cl)ccc(F)c1Cl | 0.72 µM | 
CCn1ccc(-c2cnc(N)c(O[C@H](C)c3c(Cl)ccc(F)c3Cl)c2)cc1=O | 0.06 µM | IC50 [2]: 1.44 µM; IC50 [3]: 2.51 µM; IC50 [4]: 1.2 µM
CC(Oc1cc(-c2ccn(C)c(=O)c2)cnc1N)c1ccncc1 (stereo not given) | > 20 µM | 
C[C@@H](Sc1cc(-c2ccn(CCN(C)C)c(=O)c2)cnc1N)c1c(Cl)ccc(F)c1Cl | 0.28 µM | 
CCCn1ccc(-c2cnc(N)c(O[C@H](C)c3c(Cl)ccc(F)c3Cl)c2)cc1=O | 0.11 µM | IC50 [2]: 1.43 µM; IC50 [3]: 2.15 µM; IC50 [4]: 1.22 µM
CC(NC(=O)c1cc(-c2ccn(C)c(=O)c2)cnc1N)c1c(Cl)ccc(F)c1Cl (stereo not given) | > 20 µM | 
Cc1ccc(C(C)Oc2cc(-c3ccn(C)c(=O)c3)cnc2N)cc1 (stereo not given) | 7.78 µM | 
CC(NC(=O)c1cc(-c2cc[nH]c(=O)c2)cnc1N)c1c(Cl)ccc(F)c1Cl (stereo not given) | > 20 µM | 
C[C@@H](Sc1cc(-c2ccn(C)c(=O)c2)cnc1N)c1c(Cl)ccc(F)c1Cl | 0.4 µM | 
C[C@@H](Oc1cc(-c2ccn(Cc3ccccc3)c(=O)c2)cnc1N)c1c(Cl)ccc(F)c1Cl | 0.13 µM | IC50 [2]: 1.02 µM; IC50 [3]: 1.35 µM; IC50 [4]: 1.3 µM
Cc1ccc(C(C)Oc2cc(-c3cc[nH]c(=O)c3)cnc2N)cc1 (stereo not given) | 10.2 µM | 
CC(Oc1cc(-c2ccn(C)c(=O)c2)cnc1N)c1ccc(Cl)cc1 (stereo not given) | 20.9 µM | 
C[C@@H](Oc1cc(-c2ccn(CCN(C)C)c(=O)c2)cnc1N)c1c(Cl)ccc(F)c1Cl | 0.04 µM | IC50 [2]: 0.71 µM; IC50 [5]: 0.0023 µM; IC50 [3]: 1.67 µM; Activity [6]: 81.46%; IC50 [4]: 0.44 µM; Activity [7]: 8%; Activity [8]: 5.43%
CC(Oc1cc(-c2ccn(C)c(=O)c2)cnc1N)c1ccccn1 (stereo not given) | 11.9 µM | 
CCOC(=O)Cn1ccc(-c2cnc(N)c(O[C@H](C)c3c(Cl)ccc(F)c3Cl)c2)cc1=O | 0.21 µM | IC50 [2]: 1.23 µM; IC50 [3]: 1.85 µM; IC50 [4]: 3.32 µM
CC(Oc1cc(-c2cc[nH]c(=O)c2)cnc1N)c1ccc(Cl)cc1 (stereo not given) | 17.8 µM | 
C[C@@H](Oc1cc(-c2ccn(C)c(=O)c2)cnc1N)c1c(Cl)ccc(F)c1Cl | 0.04 µM | IC50 [2]: 0.83 µM; IC50 [3]: 1.87 µM; IC50 [4]: 0.69 µM
CC(Oc1cc(-c2ccn(C)c(=O)c2)cnc1N)c1cccnc1 (stereo not given) | 11.2 µM | 
CC(Oc1cc(-c2ccn(Cc3ccccc3)c(=O)c2)cnc1N)c1c(Cl)ccc(F)c1Cl (racemic) | 0.32 µM | 
CC(Oc1cc(-c2ccn(C)c(=O)c2)cnc1N)c1c(Cl)ccc(F)c1Cl (racemic) | 0.2 µM | 
CC(Oc1cc(-c2cc[nH]c(=O)c2)cnc1N)c1c(Cl)ccc(F)c1Cl (racemic) | 0.12 µM | 
